Measurements reported in patent publication US7834148B2, “Protein phosphorylation imaging systems, methods of making phosphorylation imaging systems, and methods of use thereof” (Stanford University, priority 2006, dated 2010).

Test system: Akt kinase activity
Experiment: Bioluminescence imaging of nude mice bearing 293T/AS1T and 293T/AS1A xenografts
Type: in vivo
Conditions: 30 mg/kg
Protocol: FIGS. 10a-10b illustrate the inhibition of Akt kinase activity by perifosine in living mice. FIG. 10a illustrates the efficacy of perifosine in inhibition of Akt kinase activity in living subjects was determined by bioluminescence imaging of nude mice bearing 293T/AS1A and 293T/AS1T xenografts. Mice were treated with 30 mg/kg of perifosine or carrier control at time 0 hour and re-imaged at 6, 15, 27 and 39 hours upon i.p. injection of D-Luciferin. FIG. 10b illustrate the max photons at each time point was normalized to that of carrier control treated mice and expressed as average normalized max photons+/−S.E.M. for each xenograft. It should be noted that p<0.05 relative to AS1A xenografts.
To determine if sufficient sensitivity for indirect imaging of Akt kinase activity has been achieved in living subjects, 293T/AS1T and 293T/AS1A cells were implanted at the lower left and right of nude mice for xenograft establishment. Since the bioluminescence signal from untreated 293T/AS1A cells was about 10-fold higher than that of 293T/AS1T cells in cell culture studies, 10% 293T/AS1A cells were mixed with 90% untransfected 293T cells (no FL activity) prior to implantation to normalize the signals to that of 293T/AS1T cells. Complemented FL activity in living mice was determined by bioluminescence imaging using a cooled coupled charged device (CCD) camera upon i.p. injection of D-luciferin. […] Perifosine was chosen over LY for these animal experiments since perifosine is water soluble and currently being evaluated in clinical trials. […] 6 hours of perifosine treatment led of a 20% decrease in complemented FL activity in 293T/AS1A but a 60% increase in complemented FL activity in 293T/AS1T relative to carrier control treated mice (p<0.05), corresponding to the 2-fold difference between AS1T and AS1A (FIG. 10b).
All of the animal handling was performed in accordance with Stanford University Animal Research Committee guidelines, Mice were gas anesthetized using isofluorane (2% isofluorane in 100% oxygen) during all injection and imaging procedures. Mice were imaged using a cooled CCD camera (Xenogen IVIS29; Xenogen Corp., Alameda, Calif.). […] To quantify the measured light, regions of interest were drawn over the area of the implanted cells, and the maximum photons/s/cm^2/steradian (sr) were obtained as validated previously. […] Max photons at time 6, 12 and 24 hours were normalized to that of time 0 hr for each individual mouse, and expressed as normalized average max photons±S.E.M.

## CCCCCCCCCCCCCCCCCCOP(=O)([O-])OC1CC[N+](C)(C)CC1 [perifosine]
293T/AS1A xenografts, 6 hours, relative to carrier control treated mice
  decrease in complemented FL activity: 20%
293T/AS1T and 293T/AS1A xenografts, later than 6 hours, relative to carrier control, p>0.05
  complemented FL activity at later time points: no significant difference
293T/AS1T xenografts, 6 hours, relative to carrier control treated mice, p<0.05
  increase in complemented FL activity: 60%
xenografts, 6 hours
  difference between AS1T and AS1A: 2 fold
